# Assay results as given in patent EP0549002A1, “Method for the preparation of an antiseptic composition containing clindamycin-hydrochloride and polymyxin” (priority 1991, dated 1993).
# Experiments:
# [1] = tested on: Pasteurella haemolytica 3R188 and 6R132; assay: MIC by plate dilution method (horseblood-agar); type: cell-based; details: both P. haemolytica isolates; single agent; observed during 24 hours
# Method: Two clinical isolates of Pasteurella haemolytica were studied. The bacteria were isolated from calves and identified. The isolates included P. haemolytica 3R188 and 6R132.
# The strength of the inoculating suspension was 2 MacFarland. The plates were observed during 24 hours after incubation.
# [2] = Acute toxicity (general statement); type: in vivo; details: in combination with Clindamycin; mammals and humans
# [3] = tested on: Mycoplasma hyorhinis type strain BTS-7; assay: MIC by serial broth dilution method (Friis broth, glucose metabolism colour change); type: cell-based; details: single agent; read at day 5; 37°C aerobic
# Method: Friis-broth was added to each well.
substance,measurement,setting,value
Polymyxin E (Colistin),minimal inhibitory concentrations (MICs),[1],"1,6 µg/ml"
same,acute toxicity,[2],strikingly reduced
same,MIC,[3],> 50 µg/mL
